Test results as given in patent US8691804B2 (Evotec AG, priority 2008, dated 2014).
pIC50: −log10 of the molar value.

Molecular target: T1, human H3 receptors (Homo sapiens, UniProt Q9Y5N1)
T1 construct: host or cells: CHO-K1
Experiment: cAMP quantification assay for human H3 receptor testing
Type: cell-based
Settings: CHO-K1 cells expressing human H3 receptors; inhibition of agonist-induced decrease of cAMP; 100 nM histamine, 10 μM forskolin; read-out: Potency range (IC50 values)
Procedure: CHO—K1 cell line expressing human H3 receptors were purchased from Euroscreen (Gosselies, Belgium, Cat. no.: ES-392-C)
Human H3 receptor-expressing cell-lines were grown in Ham's F12 [Sigma, Cat. no. N6658], supplemented with 10% FBS [Sigma, Cat. no. F9665], 400 μg/ml G418 [Sigma, Cat. no. N1876] and 250 μg/ml Zeocin [Invitrogen, Cat. no. 46-0509]) according to the protocol provided by Euroscreen.
The assay measures the ability of test compounds to inhibit Histamine receptor agonist-induced decrease of intracellular free cAMP (receptor is Gi coupled).
Specifically, a cAMP quantification assay system from DiscoveRx (cAMP XS+; Cat. no. 90-0075) was used.
For the cAMP assay, confluent cells were detached from the culture vessels with 1× trypsin-EDTA solution (Sigma), and seeded into 384-well Costar plates (white, clear bottom, Cat. no. 3707) at a density of 10,000 cells per well. Cells were seeded in a volume of 50 μl in medium without antibiotics and incubated overnight in a humidified atmosphere with 5% CO2 at 37° C. The cAMP assay was performed according to the protocol provided by DiscoveRx.
The cell culture medium was removed and the cells washed once with PBS (50 μl per well). The plates were emptied by inversion and 7.5 μl/well of compound in PBS (containing 1 mM IBMX and 0.03% BSA) were added and incubated for 30 min at 37° C.
Subsequent 7.5 μl/well specific agonist solution was added and the plates for another 30 min incubated at 37° C.
hH3:100 nM histamine, 10 μM forskolin in PBS (containing 1 mM IBMX and 0.03% BSA)
After the incubation with the agonist, 5 μl/well cAMP XS antibody solution was added followed by 20 μl/well Gal/EII/Lysis (1:5:19)+ED (1:1). The plates were incubated for one hour at room temperature and afterwards 20 μl/well EA reagent was added. The luminescence was developed for approximately three hours at room temperature and the plates were read out using a ‘BMG Novostar’ plate reader.
Test compounds were assayed at 8 concentrations in triplicate. Serial 10-fold dilutions in 100% DMSO were made at a 100-times higher concentration than the final concentration and then diluted with a 2 step protocol in assay buffer to reach the required assay concentrations and 1% DMSO. […]

T1 sequence (Q9Y5N1 whole entry): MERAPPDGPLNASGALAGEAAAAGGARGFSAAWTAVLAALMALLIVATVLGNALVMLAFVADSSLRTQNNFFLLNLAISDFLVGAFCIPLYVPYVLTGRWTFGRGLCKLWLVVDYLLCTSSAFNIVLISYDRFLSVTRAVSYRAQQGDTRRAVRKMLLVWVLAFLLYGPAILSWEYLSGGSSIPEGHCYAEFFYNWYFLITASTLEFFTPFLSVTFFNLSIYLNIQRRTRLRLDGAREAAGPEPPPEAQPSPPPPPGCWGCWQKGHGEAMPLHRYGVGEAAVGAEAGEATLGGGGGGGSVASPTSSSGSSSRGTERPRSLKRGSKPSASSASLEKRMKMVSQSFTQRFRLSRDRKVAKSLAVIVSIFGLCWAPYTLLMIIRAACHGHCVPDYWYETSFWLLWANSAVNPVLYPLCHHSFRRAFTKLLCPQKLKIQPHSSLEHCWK

Row | Structure (SMILES) | pIC50
1 | COc1nccc(OC2CN(C(=O)N3CCCN(C4CCC4)CC3)C2)n1 [Example 52, 1-cyclobutyl-4-({3-[(2-methoxypyrimidin-4-yl)oxy]azetidin-1-yl}carbonyl)-1,4-diazepane] | > 7.00
2 | CC(C)(O)c1cc(OC2CN(C(=O)N3CCCN(C4CCC4)CC3)C2)ccn1 [Example 53, 2-[4-({1-[(4-cyclobutyl-1,4-diazepan-1-yl)carbonyl]azetidin-3-yl}oxy)pyridin-2-yl]propan-2-ol] | > 7.00
3 | CCc1cc(OC2CN(C(=O)N3CCCN(C4CCC4)CC3)C2)ccn1 [Example 54, 1-cyclobutyl-4-({3-[(2-ethylpyridin-4-yl)oxy]azetidin-1-yl}carbonyl)-1,4-diazepane] | > 7.00
4 | CC(C)c1cc(OC2CN(C(=O)N3CCCN(C4CCC4)CC3)C2)ccn1 [Example 55, 1-cyclobutyl-4-[(3-{[2-(1-methylethyl)pyridin-4-yl]oxy}azetidin-1-yl)carbonyl]-1,4-diazepane] | > 7.00
5 | COc1cc(OC2CN(C(=O)N3CCCN(C4CCC4)CC3)C2)ccn1 [Example 56, 1-cyclobutyl-4-({3-[(2-methoxypyridin-4-yl)oxy]azetidin-1-yl}carbonyl)-1,4-diazepane] | > 7.00
6 | Nc1cc(OC2CN(C(=O)N3CCCN(C4CCC4)CC3)C2)ccn1 [Example 57, 4-({1-[(4-cyclobutyl-1,4-diazepan-1-yl)carbonyl]azetidin-3-yl}oxy)pyridin-2-amine] | > 7.00
7 | CN(C)c1cc(OC2CN(C(=O)N3CCCN(C4CCC4)CC3)C2)ccn1 [Example 58, 4-({1-[(4-cyclobutyl-1,4-diazepan-1-yl)carbonyl]azetidin-3-yl}oxy)-N,N-dimethylpyridin-2-amine] | > 7.00
8 | Cc1ccc(OC2CN(C(=O)N3CCCN(C4CCC4)CC3)C2)nn1 [Example 59, 1-cyclobutyl-4-({3-[(6-methylpyridazin-3-yl)oxy]azetidin-1-yl}carbonyl)-1,4-diazepane] | > 7.00
9 | CC(C)(O)c1ccc(OC2CN(C(=O)N3CCCN(C4CCC4)CC3)C2)cc1F [Example 60, 2-[4-({1-[(4-cyclobutyl-1,4-diazepan-1-yl)carbonyl]azetidin-3-yl}oxy)-2-fluorophenyl]propan-2-ol] | > 7.00
10 | Cc1cnc(OC2CN(C(=O)N3CCCN(C4CCC4)CC3)C2)c(C)n1 [Example 61, 1-cyclobutyl-4-({3-[(3,5-dimethylpyrazin-2-yl)oxy]azetidin-1-yl}carbonyl)-1,4-diazepane] | > 7.00
11 | Cc1cncc(OC2CN(C(=O)N3CCCN(C4CCC4)CC3)C2)n1 [Example 63, 1-cyclobutyl-4-({3-[(6-methylpyrazin-2-yl)oxy]azetidin-1-yl}carbonyl)-1,4-diazepane] | > 7.00
12 | Cc1cnc(C)c(OC2CN(C(=O)N3CCCN(C4CCC4)CC3)C2)n1 [Example 64, 1-cyclobutyl-4-({3-[(3,6-dimethylpyrazin-2-yl)oxy]azetidin-1-yl}carbonyl)-1,4-diazepane] | > 7.00
13 | Cc1nccc(OC2CN(C(=O)N3CCCN(C4CCC4)CC3)C2)n1 [Example 65, 1-cyclobutyl-4-({3-[(2-methylpyrimidin-4-yl)oxy]azetidin-1-yl}carbonyl)-1,4-diazepane] | > 7.00
14 | COc1cncc(OC2CN(C(=O)N3CCCN(C4CCC4)CC3)C2)n1 [Example 66, 1-cyclobutyl-4-({3-[(6-methoxypyrazin-2-yl)oxy]azetidin-1-yl}carbonyl)-1,4-diazepane] | > 7.00
15 | O=C(N1CCCN(C2CCC2)CC1)N1CC(Oc2ccncc2Cl)C1 [Example 67] | > 7.00
16 | O=C(N1CCCN(C2CCC2)CC1)N1CC(Oc2ccnc3ccccc23)C1 [Example 68, 4-({1-[(4-cyclobutyl-1,4-diazepan-1-yl)carbonyl]azetidin-3-yl}oxy)quinoline] | > 7.00
17 | Cc1cc(OC2CN(C(=O)N3CCCN(C4CCC4)CC3)C2)cc(C)n1 [Example 69, 1-cyclobutyl-4-({3-[(2,6-dimethylpyridin-4-yl)oxy]azetidin-1-yl}carbonyl)-1,4-diazepane] | > 7.00
18 | O=C(N1CCCN(C2CCC2)CC1)N1CC(Oc2cccn3ccnc23)C1 [Example 70, 8-({1-[(4-cyclobutyl-1,4-diazepan-1-yl)carbonyl]azetidin-3-yl}oxy)imidazo[1,2-a]pyridine] | > 7.00
19 | O=C(N1CCCN(C2CCC2)CC1)N1CC(Oc2ccn3ccnc3c2)C1 [Example 71, 7-({1-[(4-cyclobutyl-1,4-diazepan-1-yl)carbonyl]azetidin-3-yl}oxy)imidazo[1,2-a]pyridine] | > 7.00
20 | NC(=O)c1cc(OC2CN(C(=O)N3CCCN(C4CCC4)CC3)C2)ccn1 [Example 72, 4-({1-[(4-cyclobutyl-1,4-diazepan-1-yl)carbonyl]azetidin-3-yl}oxy)pyridine-2-carboxamide] | > 7.00
21 | CNC(=O)c1cccc(OC2CN(C(=O)N3CCCN(C4CCC4)CC3)C2)c1 [Example 75, 3-({1-[(4-cyclobutyl-1,4-diazepan-1-yl)carbonyl]azetidin-3-yl}oxy)-N-methylbenzamide] | > 7.00
22 | O=C(N1CCCN(C2CCC2)CC1)N1CC(Oc2ncccc2Cl)C1 [Example 76] | > 7.00
23 | O=C(N1CCCN(C2CCC2)CC1)N1CC(Oc2ccc(Cl)cn2)C1 [Example 77, 1-({3-[(5-chloropyridin-2-yl)oxy]azetidin-1-yl}carbonyl)-4-cyclobutyl-1,4-diazepane] | > 7.00

Results, then the compound that gave them:

Row | pIC50 | Structure (SMILES)
24 | > 7.00 | CNC(=O)c1ccc(OC2CN(C(=O)N3CCN(C4CCC4)CC3)C2)cn1 [Example 37, 5-({1-[(4-cyclobutylpiperazin-1-yl)carbonyl]azetidin-3-yl}oxy)-N-methylpyridine-2-carboxamide]
25 | > 7.00 | O=C(N1CCN(C2CCC2)CC1)N1CC(Oc2ccccc2)C1 [Example 38, 1-cyclobutyl-4-[(3-phenoxyazetidin-1-yl)carbonyl]piperazine]
26 | > 7.00 | O=C(N1CCN(C2CCC2)CC1)N1CC(Oc2ccc(C(F)(F)F)cc2)C1 [Example 39, 1-cyclobutyl-4-({3-[4-(trifluoromethyl)phenoxy]azetidin-1-yl}carbonyl)piperazine]
27 | > 7.00 | N#Cc1ccc(OC2CN(C(=O)N3CCN(C4CCC4)CC3)C2)cc1 [Example 40, 4-({1-[(4-cyclobutylpiperazin-1-yl)carbonyl]azetidin-3-yl}oxy)benzonitrile]
28 | > 7.00 | O=C(N1CCN(C2CCC2)CC1)N1CC(Oc2ccc(F)cc2)C1 [Example 41, 1-cyclobutyl-4-{[3-(4-fluorophenoxy)azetidin-1-yl]carbonyl}piperazine]
29 | > 7.00 | O=C(N1CCCN(C2CCC2)CC1)N1CC(Oc2ccc3c(n2)CCN(C2CCC2)C3)C1 [Example 42, 6-cyclobutyl-2-({1-[(4-cyclobutyl-1,4-diazepan-1-yl)carbonyl]azetidin-3-yl}oxy)-5,6,7,8-tetrahydro-1,6-naphthyridine]
30 | > 7.00 | CNC(=O)c1ccc(OC2CN(C(=O)N3CCCN(C4CCC4)CC3)C2)c(F)c1 [Example 43, 4-({1-[(4-cyclobutyl-1,4-diazepan-1-yl)carbonyl]azetidin-3-yl}oxy)-3-fluoro-N-methylbenzamide]
31 | > 7.00 | O=C(N1CCCN(C2CCC2)CC1)N1CC(Oc2ccc(I)cc2)C1 [Example 44, 1-cyclobutyl-4-{[3-(4-iodophenoxy)azetidin-1-yl]carbonyl}-1,4-diazepane]
32 | > 7.00 | O=C(N1CCCN(C2CCC2)CC1)N1CC(Oc2cncc(F)c2)C1 [Example 45, 1-cyclobutyl-4-({3-[(5-fluoropyridin-3-yl)oxy]azetidin-1-yl}carbonyl)-1,4-diazepane]
33 | > 7.00 | O=C(N1CCCN(C2CCC2)CC1)N1CC(Oc2ccc(Cl)nc2)C1 [Example 46, 1-({3-[(6-chloropyridin-3-yl)oxy]azetidin-1-yl}carbonyl)-4-cyclobutyl-1,4-diazepane]
34 | > 7.00 | CNC(=O)c1ccc(OC2CN(C(=O)N3CCCN(C4CCC4)CC3)C2)cc1F [Example 47, 4-({1-[(4-cyclobutyl-1,4-diazepan-1-yl)carbonyl]azetidin-3-yl}oxy)-2-fluoro-N-methylbenzamide]
35 | > 7.00 | O=C(N1CCCN(C2CCC2)CC1)N1CC(Oc2cnccc2Cl)C1 [Example 48, 1-({3-[(4-chloropyridin-3-yl)oxy]azetidin-1-yl}carbonyl)-4-cyclobutyl-1,4-diazepane]
36 | > 7.00 | O=C(N1CCCN(C2CCC2)CC1)N1CC(Oc2ccncc2F)C1 [Example 49, 1-cyclobutyl-4-({3-[(3-fluoropyridin-4-yl)oxy]azetidin-1-yl}carbonyl)-1,4-diazepane]
